Test results reported in the OPERA property sets (Mansouri et al. 2018).

details: not given

| Structure (SMILES) | boiling point [°C] | log10 Henry constant (atm·m³/mol) | log10 vapour pressure (mmHg) | melting point [°C] | ready biodegradability |
| --- | --- | --- | --- | --- | --- |
| OCCCc1ccccc1 | 235 | -6.69 | -1.7 |  |  |
| CCSc1nnc(C(C)(C)C)c(=O)n1N |  |  | -5.12 | 95 |  |
| CC1=C(CC(=O)O)c2cc(F)ccc2/C1=C\c1ccc(S(C)=O)cc1 (configuration not stated) |  |  |  | 183 |  |
| Cl.NCCc1ccc(O)c(O)c1 |  |  |  | 249 |  |
| Oc1ccc(O)c(O)c1 |  |  |  | 140 |  |
| O=c1ccc2ccc(O)c(O)c2o1 |  |  |  | 262 |  |
| CCC(=O)CC(C)CC (configuration not stated) | 159 |  |  |  | readily biodegradable |
| CCCCOP(=O)(O)OCCCC |  |  |  | -13 | not readily biodegradable |
| CC(C)=CC(=O)C=C(C)C | 198 |  | -0.557 | 28 |  |
| c1ccc2cc(Oc3ccc4ccccc4c3)ccc2c1 |  |  |  | 105 |  |
| CC[C@H]1CN2CCc3cc(OC)c(OC)cc3[C@@H]2C[C@@H]1C[C@@H]1NCCc2cc(O)c(OC)cc21 |  |  |  | 116 |  |
| Cc1cc([N+](=O)[O-])c(N)c([N+](=O)[O-])c1 |  |  |  | 172 |  |
| NNC(=O)c1ccncc1 |  |  |  | 171 |  |
| COc1cc2c(c(OC)c1OC)-c1ccc(O)c(=O)cc1[C@@H](NC(C)=O)CC2 |  |  |  | 178 |  |
| O=C(CI)c1ccccc1 |  |  |  | 34.4 |  |
| C=CCc1cc(C)ccc1O | 237 |  |  |  |  |
| CC(c1ccc(Cl)cc1)c1ccc(Cl)cc1 | 320 |  |  | 56 |  |
| CCN(CC)c1ccc(N)cc1 | 261 |  |  |  |  |
| O=[PH](O)c1ccccc1 |  |  |  | 84 |  |
| C=CC=COC | 91.5 |  |  |  |  |
| COc1cc2c(cc1OC)[C@]1(O)C(=O)c3ccc4c(c3O[C@@H]1CO2)C=CC(C)(C)O4 |  |  |  | 198 |  |
| ClC1=C(Cl)C2(Cl)C3CCC4C(CCC3C1(Cl)C2(Cl)Cl)C1(Cl)C(Cl)=C(Cl)C4(Cl)C1(Cl)Cl (configuration not stated) |  |  |  |  | not readily biodegradable |
| N[C@@H]1CONC1=O |  |  |  | 140 |  |

same assay, conditions: fish

| Structure (SMILES) | log10 BCF |
| --- | --- |
| O=[PH](O)c1ccccc1 | 0.78 |
